This is an account of results in a melting point compilation (Tetko et al.; mined from patent text by program, amines drawn as free bases though some values may be those of a salt).

In general, melting point refers to the temperature, or range, at which the solid turns liquid. On to `CCC1c2ccc(C)n2-c2ccc(F)cc2N1S(=O)(=O)c1ccc(O)c(C)c1` (centres undefined), for which the melting point was in the range of 199 to 201 °C.
Molecule `Cc1nnc(OCC(F)(F)F)c(-c2c(F)cc(F)cc2F)c1-c1ccc(Cl)cc1` yielded a melting point of 105 to 108 °C.
The result for `Cn1nc(C(F)(F)F)cc1Oc1cccc(Cl)n1` reads 56 to 58 °C; that for `COC(=O)c1cc(-n2c(=O)c3c(n(C)c2=O)CCC3)ccc1Cl`, 164 to 166 °C.
`NCC#Cc1ccc(Cl)cc1C(=O)c1ccccc1Cl` yielded a melting point of 81 to 89 °C.
The result for `COc1cc(-c2ncnc(OC)c2Cl)c(F)cc1Cl` reads 142 to 143 °C.
With `COc1ccccc1-n1c(=O)[nH]c2ccc(-c3cccc(O)c3)nc21`, the melting point is 240 to 242 °C.
The result for `CCN(CC)C(=O)CCC(=O)Nc1ccc(C(=O)N2CCCCc3ccccc32)cc1` reads 165 to 167 °C; that for `O=C(C=Cc1ccc(OCc2ccccc2)c([N+](=O)[O-])c1)N1CCCCC1`, 155 to 156 °C.
The result for `Oc1ccc2c(c1)Nc1ccccc1S2` reads 207 to 208 °C.
`CN(C)c1cccc(Oc2cccc(-c3cccc(C(=O)NCCC#N)c3)n2)c1` showed a melting point of 95 to 96 °C.
The figure for `CCCCCCCCNC(=O)N1CCC(Nc2ccc(CCNC[C@H](O)COc3ccc(F)cc3)cc2)CC1` is 58 to 64 °C; for `COC(=O)C(=O)c1ccccc1F` it is 98 to 100 °C.
Regarding `CN1CCNC1=C[N+](=O)[O-]`, the melting point fell in the range of 142 to 144 °C.
The figure for `O=C1CCC(c2ccccc2)(c2ccccc2)C2CN(C(Cc3ccccc3)=NCc3ccccc3)CC12` (centres undefined) is 165 °C; for `COc1cc(-c2nc3ccccc3n2Cc2ccccc2I)cc(OC)c1OC` it is 179 °C; for `O=C(O)C(=O)c1cc(F)ccc1NC(=O)c1ccc(-c2ccccc2)cc1` it is 204 to 206 °C.
The figure for `Cc1cc(C)c(/C=C2\C(=O)N(CN3CCN(C)CC3)c3ccccc32)[nH]1` is 160 to 164 °C; for `Cc1nc(N2CCN(Cc3ccccn3)C2=O)sc1C(=O)NCc1cccnc1` it is 58 to 61 °C; for `CCc1nn(C2CN(C(C)C)C2)c(C(N)=O)c1[N+](=O)[O-]` it is 153 to 156 °C.
Turning to `COc1ccc(-c2oncc2CCC(=O)O)cc1OC`, the melting point fell in the range of 169 to 170 °C.
The figure for `c1ccc(COc2ccc3c(ccn3Cc3ccncc3)c2)cc1` is 124 to 125 °C; for `COc1ccc(C2(CCN3CCC(C(O)(c4ccccc4)c4ccccc4)CC3)CCN(C(=O)c3cc(OC)c(OC)c(OC)c3)C2)cc1OC` (centres undefined) it is 95 to 97 °C; for `CCCCCCCCc1cc2cc(O)ccc2c(Oc2ccc(/C=C/C(=O)O)cc2)c1-c1ccccc1` it is 163 to 164 °C.
Consider `CCCc1ncc(C(=O)OCC)c(NCc2ccc(-c3ccccc3-c3nnnn3C(c3ccccc3)(c3ccccc3)c3ccccc3)cc2)n1`, for which the melting point was in the range of 132 to 133 °C.
The molecule `COc1cc2cc(C(=O)Nc3cc(OCc4ccccc4)c4ccccc4c3CCOC(C)=O)[nH]c2c(OC)c1OC` displayed a melting point of 55 to 65 °C.
The result for `COc1cc(CCN2CCC(NC(=O)c3ccccc3)CC2)cc(OC)c1OC` reads 193 to 194 °C; that for `Cc1cc(-c2c(Cl)ccc(C(=O)c3cnn(C)c3O)c2Cl)on1`, 143 to 144 °C.
The result for `COc1ccc(-n2c(=O)c(CCCO)c(O)c3cccnc32)cc1` reads 229 to 231 °C; that for `CC(=O)Nn1cc(C)n(C)c1=O`, 199 to 201 °C.
`COC(=O)c1csc(NC(=O)C(CC2CCCC2)c2ccc(Cl)cc2)n1` (centres undefined) displayed a melting point of 156 to 157 °C.
In the case of `Cc1cc2nc(C)c(=O)n(C)c2cc1C`, the melting point lay within 164 to 166 °C.
For the molecule `CCOC1c2ccccc2-c2nccnc21` (centres undefined), the melting point is over 300 °C.
The result for `CCCc1cc2c(cc1C(=O)c1ccc(C(O)=NO)cc1)C(C)(C)CCC2(C)C` reads 255 to 257 °C.
